In brackets after ≈: the same amount, converted by molar mass.
Experiments:
[1] = design: method as in PMID 29722184, PMID 32079232; conditions: cited from earlier work
[2] = test system: M. gallisepticum; test: In vitro dynamic model (one-compartment, first-order elimination); assay type: cell-based, Mycoplasma gallisepticum
Procedure: According to previous reports ([21][–][23]), an in vitro model compatible with M. gallisepticum growth and amphenmulin pharmacokinetics was developed ([24]). It comprised a reservoir chamber containing fresh, drug-free medium; a reaction chamber with a three-necked flask where amphenmulin interacts with M. gallisepticum, containing 300 mL of medium in the outer chamber (external compartment, EC) and 10 mL of M. gallisepticum culture (10^7 CFU/mL) in a semipermeable membrane chamber (internal compartment, IC); and a waste chamber collecting effluent, which were connected via tubing and controlled by a peristaltic pump (Fig. 2). In this model, the flow rate was calculated as 1.63 mL/min from the reaction chamber volume and amphenmulin’s elimination half-life (T1/2Ke) after intravascular administration in chickens, enabling dynamic changes in drug concentrations that simulate amphenmulin elimination in chickens and its activity against M. gallisepticum. The in vitro elimination of amphenmulin followed first-order kinetics:
where C0 is the initial amphenmulin concentration, C is the amphenmulin concentration at time t, k is the elimination rate constant, and t is the time after dosing. […]
The determination of amphenmulin in the medium referenced our laboratory’s method for extracting tiamulin ([25]) and was also detected by the HPLC-MS/MS method mentioned in the PK section.

[3] = test system: M. gallisepticum; test: PK/PD integration, inhibitory Sigmoid Emax model; assay type: cell-based, Mycoplasma gallisepticum; conditions: for Emax: inhibitory Emax model
Procedure: Phoenix software was used to analyze the in vitro concentration–time data of amphenmulin and calculate the AUC and peak concentration (Cmax), which were combined with MIC to obtain PK/PD parameters. Concurrently, the anti-mycoplasma effect was derived from the dynamic time–kill curve, which was analyzed with the PK/PD index using an inhibitory Sigmoid Emax model as follows:
E=E0−(E0−Emax)×CeN/EC50N+CeN
E, anti-mycoplasma effect, the change in M. gallisepticum counts during 24 h of cultivation; E0, M. gallisepticum change in control (without drug); Emax, maximal effect produced by amphenmulin against M. gallisepticum during 24 h; Ce, PK/PD parameters (AUC/MIC or Cmax/MIC); EC50, the Ce value needed to produce 50% of maximal effect; N, Hill coefficient, the slope of the fitted curve.

[4] = design: method as in PMID 32079232; conditions: mice; cited from earlier work
[5] = test system: M. gallisepticum S6 strain; test: Susceptibility assay, agar dilution (MIC, MIC99, MPC); assay type: cell-based, Mycoplasma gallisepticum; design: MPC: unit not given here
Procedure: The minimum inhibitory concentration (MIC) of amphenmulin against M. gallisepticum S6 strain was determined with reference to the protocols previously reported ([16], [17]). The broth microdilution method was performed using 96-well plates to achieve a final titer of approximately 10^7 colony-forming units (CFU)/mL of M. gallisepticum in each well. The final concentrations tested of amphenmulin ranged from 0.488 × 10^−3 to 0.125 µg/mL. Concurrently, a growth control (without drug), an end-point control (blank medium), and a sterile control (sterile broth) were also implemented. […] For the agar dilution method, M. gallisepticum was inoculated and cultured on agar plates containing a twofold dilution series of amphenmulin concentrations, and the MIC was the lowest drug concentration that inhibited growth. Additionally, following the procedure of broth microdilution, the initial culture before incubation and the samples from wells where the color remained unchanged after 48 h of incubation were subjected to 10-fold serial dilutions. Each dilution sample (10 µL) was then plated on drug-free agar for colony counting.
We also determined the minimum concentration inhibiting colony formation by 99% (MIC99) of amphenmulin against the S6 strain by slightly modifying the existing methods ([18], [19]). […] By counting the colony growth of M. gallisepticum inoculated on these drug-containing agar plates and performing linear regression with drug concentration, we calculated the amphenmulin concentration that inhibits 99% growth of the S6 strain.
Furthermore, we determined the mutant prevention concentration (MPC) of amphenmulin against the S6 strain by agar dilution method ([20]). Briefly, M. gallisepticum at exponential phase was enriched to ≥10^9 CFU/mL by centrifugation and cultured as described above. The lowest drug concentration that inhibited mycoplasma growth in the agar plate was determined as the primary MPC (MPCpr), and the determination was repeated after linearly reducing the MPCpr to 0.5 MPCpr at 10% drug concentration. The final mycoplasma-free growth concentration was the MPC. All the experiments of the above pharmacodynamic studies were conducted in triplicate.

[6] = Mycoplasmoides gallisepticum, S6STRAIN

Question: With `C=C[C@]1(C)C[C@@H](OC(=O)CSc2ccccc2N)[C@]2(C)[C@H](C)CC[C@]3(CCC(=O)[C@H]32)[C@@H](C)[C@@H]1O` [amphenmulin, 22-(2-amino-phenylsulfanyl)-22-deoxypleuromutilin] as the molecule, how does the acute toxicity [1] read?
Answer: practically non-toxic

Question: What about the “mycoplasma numbers at the highest dose” value ([2]; counting limit) of the same molecule?
Answer: < 100 CFU/mL

Question: And the “maximum decrease of M. gallisepticum counts within 0–72 h” value ([2]; doses of 0.1–0.5 μg/mL)?
Answer: ≤ 2.82 Log10CFU/mL

Question: What about the “AUC24 h/MIC target value” ([3]; for a decrease of 1 Log10CFU/mL of M. gallisepticum) of the same molecule?
Answer: 904.05 h

Question: What about the Emax ([3]; index AUC24 h/MIC) of the same molecule?
Answer: −2.4214 Log10CFU/mL

Question: And the Emax ([3]; index Cmax/MIC)?
Answer: −3.3571 Log10CFU/mL

Question: What about the oral bioavailability [4] of the same molecule?
Answer: 13.65%

Question: What about the “MPC relative to MIC99” value [5] of the same molecule?
Answer: about 6.5 times

Question: What about the MIC [5, 6] of the same molecule?
Answer: 7.8 ng/mL (≈ 0.0161 µM)

Question: What about the MIC99 [5, 6] of the same molecule?
Answer: 7.7 ng/mL (≈ 0.0159 µM)

Question: And the MPC ([5]; agar dilution, inoculum 10^9 CFU/mL)?
Answer: 0.0500

Question: And the “mutation selection window (MSW)” value ([5]; between MIC99 and MPC)?
Answer: 0.77 × 10^−2–0.05 µg/mL
